The values that follow come from patent publication US20230172914A1, “BIOMARKER-BASED THERAPEUTIC COMPOSITION” (WELLMARKER BIO CO., LTD., priority 2019, published 2023).

The test system of data set [1] is KM12C cell line (active RON/RON mutant (Δ160)) tumor. Briefly: Tumor growth inhibition in animal model transplanted with KM12C (Experimental Example 10). In kind it is in vivo, BALB/c nude mice. How it is done: 5-Week-old female BALB/c nude mice were purchased and acclimatized for 1 week. Then, human-derived colon cancer cell line KM12C (1.5×10^6 cells/mice) (cell line expressing active RON/RON mutant (Δ160)) was diluted in PBS, and injected subcutaneously (100 μl) into the right dorsal side of the mice. Comparative Examples 1 and Example 18 were orally administered when the tumor reached a size of about 100 mm^3. The drug was administered once a day for 2 weeks, and tumor size and body weight were measured twice a week. […] In addition, after completion of the drug administration, the experimental animals were euthanized, and then the tumors were extracted and weighed.
In addition, a portion of the extracted tumor tissue was fixed with 10% formalin, and then a paraffin block was produced therefrom. Then, changes in expression of each protein were checked through immunochemical staining. As a result, it was identified that in the group having received Example 18, expression of the active RON and p-ERK decreases, whereas expression of cleaved caspase 3 is induced (FIG. 11). Tumor tissues were collected from the vehicle group and the 5 mpk (mg/kg) treatment group, and changes in protein expression were compared through Western blotting.

In data set [2] the target is T1, RON mutant (Δ160) (Homo sapiens, UniProt Q04912).
T1 construct: expressed in transfected cells; host or cells: Colo320HSR (RON-negative colon cancer cell line)
As to the kind of experiment: Kinase assay for RON mutant Δ160 in transfected Colo320HSR (immunoprecipitation, Western blotting). In kind it is cell-based. The conditions noted are these: Colo320HSR transfected with RONΔ160, 2 hours of drug treatment. The procedure: (§1) As a way capable of replacing RON mutant, each of the mutants (Δ160, Δ155) was transfected into Colo320HSR, a RON-negative cell line, and the cell line was subjected to treatment with Example 18 or Comparative Example 1 at respective concentrations. Then, it was checked, through immunoprecipitation and Western blotting, whether expression of active RON decreases. The detailed method is as follows. The RON-negative Colo320SHR colon cancer cell line was transfected with 12 ug of each of RONΔ160 and RON Δ155 using lipofectamine 2000 (Invitrogen, cat #11668-019). For the same transfection efficiency, after 24 hours, the transformed strains were dispensed into a 60-mm dish. 48 hours after transfection, treatment with drugs of Comparative Example 1 and Example 18 was performed, respectively, in a dose-dependent manner. After 2 hours of drug treatment, the cells were collected and washed with PBS. Then, the washed cells were lysed with RIPA Lysis Buffer (T&I, cat #BRI-9001).
(§2) Protein concentrations were quantified using the Bradford (BioRad, cat #5000205) method. […]
(§3) Electrophoresis was performed using SDS-PAGE, and then proteins were transferred to PVDF membrane. […] The developed film was analyzed with densitometry using Image-J, and then IC50 was calculated using Graphpad Prism (GraphPad Software, Inc.).
(Immunoblotting shows a protein as a band on a membrane.)

Data set [3] has as its system RON mutant (Δ155). Briefly: Kinase assay for RON mutant Δ155 in transfected Colo320HSR (immunoprecipitation, Western blotting). The conditions noted are these: Colo320HSR transfected with RONΔ155, 2 hours of drug treatment. In kind it is cell-based. How it is done:
as §1, §2, §3

Data set [4] has as its system KM12C (RONΔ160). As to the kind of experiment: MTS assay KM12C (Experimental Example 6). In kind it is cell-based. The conditions noted are these: Homo sapiens, 72 hours. The procedure: In MTS assay for Example 18 and Comparative Example 1, KM12C cell line was seeded at 1,000 cells per well into 96-well plates. After 24 hours, the cells were treated with various concentrations (0.000001 uM to 10 uM) of Example 18 and Comparative Example 1 in 100 ul of 10% FBS-MEM medium (Welgene) per well. Subsequently, the cells were incubated for 72 hours. Then, 20 μl of MTS solution (Promega) was added thereto, and incubation was performed for 2 hours. Then, the absorbance was measured at 490 nm. The IC50 values for Example 18 and Comparative Example 1 were calculated using GraphPad Prism™ 5 to investigate cytotoxicity.

Setting [5] is: 5 mpk (mg/kg) treatment group vs vehicle.

T1 sequence (Q04912 25-1294 isoform Q04912-7 limits assumed): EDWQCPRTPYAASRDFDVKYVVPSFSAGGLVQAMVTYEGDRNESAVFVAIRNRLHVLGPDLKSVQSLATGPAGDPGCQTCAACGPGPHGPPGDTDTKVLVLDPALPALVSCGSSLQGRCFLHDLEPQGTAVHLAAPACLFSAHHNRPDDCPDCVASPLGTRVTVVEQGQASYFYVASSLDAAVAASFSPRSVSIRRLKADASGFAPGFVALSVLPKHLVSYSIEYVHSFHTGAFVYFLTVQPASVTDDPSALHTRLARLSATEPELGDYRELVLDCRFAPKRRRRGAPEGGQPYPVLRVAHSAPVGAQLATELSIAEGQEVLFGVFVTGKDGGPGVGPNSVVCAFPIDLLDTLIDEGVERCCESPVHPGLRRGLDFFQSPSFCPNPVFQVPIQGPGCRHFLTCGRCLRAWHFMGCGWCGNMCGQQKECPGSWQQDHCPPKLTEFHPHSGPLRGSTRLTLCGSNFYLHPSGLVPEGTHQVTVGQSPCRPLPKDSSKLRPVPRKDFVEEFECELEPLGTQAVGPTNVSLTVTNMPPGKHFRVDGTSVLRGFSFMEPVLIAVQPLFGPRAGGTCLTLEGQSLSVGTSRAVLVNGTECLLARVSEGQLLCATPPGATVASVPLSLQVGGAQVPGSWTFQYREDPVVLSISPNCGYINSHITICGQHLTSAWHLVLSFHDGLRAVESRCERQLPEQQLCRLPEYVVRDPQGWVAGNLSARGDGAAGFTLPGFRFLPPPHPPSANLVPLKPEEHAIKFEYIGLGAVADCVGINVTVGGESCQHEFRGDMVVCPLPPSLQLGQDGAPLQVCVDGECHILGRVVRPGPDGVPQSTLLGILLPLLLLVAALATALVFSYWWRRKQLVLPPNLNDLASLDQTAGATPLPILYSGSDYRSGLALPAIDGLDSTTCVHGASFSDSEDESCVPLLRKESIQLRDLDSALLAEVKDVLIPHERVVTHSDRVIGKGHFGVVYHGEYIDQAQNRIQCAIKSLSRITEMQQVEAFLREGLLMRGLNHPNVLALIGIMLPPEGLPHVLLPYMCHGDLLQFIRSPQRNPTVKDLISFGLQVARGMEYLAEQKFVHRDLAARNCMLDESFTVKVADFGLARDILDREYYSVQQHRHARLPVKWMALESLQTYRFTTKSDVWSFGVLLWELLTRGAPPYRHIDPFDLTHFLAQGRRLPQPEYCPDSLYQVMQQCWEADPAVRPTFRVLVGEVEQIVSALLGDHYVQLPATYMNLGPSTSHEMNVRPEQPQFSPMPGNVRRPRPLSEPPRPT
T1 sequence (Q04912 25-304 partner limits assumed): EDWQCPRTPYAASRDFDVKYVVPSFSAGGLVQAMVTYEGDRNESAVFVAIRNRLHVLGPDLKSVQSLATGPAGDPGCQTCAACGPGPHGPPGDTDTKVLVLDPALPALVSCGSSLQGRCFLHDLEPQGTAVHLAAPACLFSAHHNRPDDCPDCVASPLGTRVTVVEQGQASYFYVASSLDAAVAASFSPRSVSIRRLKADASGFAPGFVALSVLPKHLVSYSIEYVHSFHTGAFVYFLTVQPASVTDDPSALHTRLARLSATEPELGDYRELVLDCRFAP

Regarding `CCOc1ccn(-c2ccc(F)cc2)c(=O)c1C(=O)Nc1ccc(Oc2ccnc3cc(-c4ccc(CN5CCOCC5)cn4)sc23)c(F)c1.Cl` [Example 18, 4-ethoxy-N-[3-fluoro-4-({2-[5-(morpholinomethyl)pyridin-2-yl]thieno[3,2-b]pyridine-7-yl}oxy)phenyl]-1-(4-fluorophenyl)-2-oxo-1,2-dihydropyridine-3-carboxamide hydrochloride], in data set [1] (setting [5]), the “active RON expression level in tumor tissue (Western blotting)” value is “decreased expression level” and the “cleaved caspase 3 expression level in tumor tissue (Western blotting)” value is “increased expression level”. Besides, in data set [1] (extracted tumor tissue), the “expression of cleaved caspase 3 in tumor tissue (immunochemical staining)” value was “induced”; the “expression of the active RON and p-ERK in tumor tissue (immunochemical staining)” value is listed as “decreases”. In addition, in data set [1] (oral, once a day for 2 weeks), the “change in mouse body weight” value was “no change in mouse body weight”, the “tumor growth inhibition efficacy (tumor size)” value is recorded as “tumor growth inhibition efficacy with drug administration was observed” and the “tumor weight compared with the vehicle group” value is “decreased tumor weight was observed”. In data set [2], the “inhibition of RON activity (degree of active RON)” value is reported as “high inhibition efficacy as compared with Comparative Example 1”. In addition, in data set [3], the “inhibition of RON activity (degree of active RON)” value was “high inhibition efficacy as compared with Comparative Example 1”. The IC50 in data set [4] amounted to 6.9 nM.

For orientation: IC50 means the midpoint of a concentration-inhibition curve. A low value points to inhibition by little substance.
